{Lys} = L-lysine residue attached to the PNA terminus
Columns and labels:
[1] = tested on: 20mer RNA oligonucleotide (spacer sequence designed to target the BFP gene); assay: UV spectroscopy thermal melting analysis of duplexes; type: binding; conditions: 1 μM each strand, 10 mM sodium phosphate buffer pH 7.4
Protocol: All samples were prepared by mixing a stoichiometric amount of each strand (1 μM) in 10 mM sodium phosphate buffer at pH 7.4 (Table 8). The samples were pre-annealed at 95° C. for 5 mins and gradually cooled to room temperature prior to the melting experiment. UV melting experiments were performed using a Shimadzu UV-3600 Plus UV-Vis-NIR spectrophotometer equipped with a thermoelectrically controlled multicell holder. UV melting spectra were recorded after every 1° C. temperature change by monitoring the absorbance at 260 nm from 20° C. to 110° C. to 20° C., with a heating/cooling ramp rate of 1.0° C./min. The heating and cooling curves were overlapped to confirm reversible denaturation. All spectra were plotted on Origin 2020 and smoothed using a 20-point adjacent averaging algorithm. The first derivative plots of the melting curves were generated to determine the melting temperature for each duplex.

[2] = tested on: Cas9 RNP using a sgRNA targeted to the HBB gene (R-01); assay: Cas9 RNP editing at HBB in K562 cells (amplicon sequencing); type: cell-based, human
Protocol: (§1) For Cas9 RNP assembly, 50 pmol of sgRNA (IDT, Alt-R CRISPR-Cas9 sgRNA) and 45 pmol of SpCas9 (CPO2, PNA BIO) were incubated at room temperature for 10 minutes in a 5 μL reaction in 1×3.1 Buffer (B7203S, NEB). For nucleofections, 1×10^6 cells, 5 μL Cas9 RNP, and 1 μL of Alt-R Cas9 electroporation enhancer (IDT) were resuspended in 100 μL of Lonza cell line solution (V4XC-2024/V4XC-1024, Lonza) and nucleofected using a Lonza 4D-Nucleofector X unit. Cas9 RNP treated cells were seeded in 2 mL of complete media and incubated for 96 hours prior to harvesting for analysis.
(§2) For PNA pre-treatments, 1×10^6 cells and 1 μL of PNA diluted to desired concentration in water were similarly nucleofected using Lonza cell line kits and 4D-Nucleofector. PNA nucleofected cells were resuspended in 1.25 mL of complete media in 1.5 mL tubes and incubated at 37° C. for 2 hours before Cas9 RNP nucleofection as described above. After Cas9 RNP nucleofection cells were seeded in 2 mL of complete media and incubated for 96 hours prior to harvesting and analysis.
10^6 stable BFP-expressing K562 cells were nucleofected (Lonza 4D Nucleofector) with a specified dose of BFP cis-protospacer PNA or HBB PNA (0-250 pmol). Two hours later, all conditions were nucleofected with 45 pmol of purified Cas9 RNP using a sgRNA targeted to the BFP gene or targeted to the HBB gene (R-01). 72 hours later, cells with BFP fluorescent drop out (via Cas9 indel formation) were quantified by flow cytometry (Beckman Coulter Cytoflex instrument) for the BFP target (FIG. 3A). For the HBB target (FIG. 3B-3C), 72 hours post-treatment gDNA was extracted (Promega ReliaPrep) and the region of interest was PCR amplified (NEB Phusion). Indel frequency was measured by T7 endonuclease assay (NEB—EnGen Mutation Detection Kit).
(§3) Genomic DNA was purified from 0.5×10^6 cells using Promega ReliaPrep gDNA Tissue Miniprep System (A2052) and eluted in 50 μL of water. Library prep used 100 ng of gDNA input with Ampliseq for Illumina Library Plus kit (20019101, Illumina) and used a custom primer pool designed to amplify a designed panel of genomic targets of interest (Table 9). Libraries were indexed, pooled, and loaded onto a Mid-output (300-cycles, Illumina, FC-420-1004) cartridge for paired-end sequencing on an Illumina Miniseq instrument. FASTQ reads were subjected to quality analysis (Basespace FASTQC) and analyzed for indel frequency using Cas-Analyzer assessment tool (parameters: Comparison range (R)—both ends of full amplicon sequence, Minimum frequency (n)=1). gRNAs used in this study are listed in Table 8, amplicon genomic coordinates listed in Table 9.

[3] = tested on: Cas9 RNP (FANCF, EMX1, ZSCAN2, CCR5, VEGFA gRNAs); assay: On-target specificity of Cas9 RNP (ratio of on-target to off-target editing rates); type: cell-based, human
Protocol: as §2, §3
In the case of EMX1 ON and OFF target amplicons, both regions were amplified from 200 ng of purified gDNA by Phusion High-Fidelity Polymerase (NEB, M0530S) and pooled and purified using QIAGEN PCR purification kit (28104, Qiagen). Library prep used 200 ng of purified amplicon input with Illumina DNA Prep kit (20025519, Illumina). EMX1 libraries were similarly indexed, pooled, sequenced, and analysed as above.
For pre-annealed PAM-distal PNA experiments, 50 pmol of sgRNA and 50 pmol of PAM-distal 10mer PNAs were incubated in a thermocycler at 37° C. for 30 minutes in a 5 μL reaction in 1×3.1 Buffer (B7203S, NEB) to allow annealing. PNA annealing to sgRNAs was confirmed by gel shift on 5% polyacrylamide gel. 45 pmol of SpCas9 (CP02, PNA BIO) was then added at room temperature and incubated for 10 minutes to allow RNP formation. Resulting reaction was delivered to 1×10^6 K562 cells by a single nucleofection and treated as described above.

[4] = tested on: Cas9 RNP using a sgRNA targeted to the BFP gene; assay: Cas9 RNP editing of BFP reporter gene in K562-BFP cells (BFP fluorescent drop out, flow cytometry); type: cell-based, human; conditions: for inhibitory effect on Cas9-mediated BFP gene disruption and indel formation: 0-250 pmol nucleofected 2 hours prior to Cas9 RNP
Protocol: as §1, §2
K562 cells were spun down and resuspended in fresh complete media at 300,000 cells/mL 48 hours prior to analysis. Samples for flow cytometry were fixed in complete media with 1% formaldehyde for 15 minutes before spinning down, resuspending in 300 μL PBS, and filtering through a cell strainer capped tube. Samples were analyzed for BFP and GFP fluorescence using a Cytoflex LX instrument (Beckman Coulter) using PacificBlue and FITC lasers, respectively, and quantification and gating was done using FloJo v10 software. Background fluorescent drop out was determined by measurement of mock nucleofected lines in quadruplicate and subtracted from experimental values to determine reported editing frequency.
10^6 stable BFP-expressing K562 cells were nucleofected (Lonza 4D Nucleofector) with a specified dose of PNA or ssDNA oligo (0-250 pmol). Two hours later, all conditions were nucleofected with 45 pmol of purified Cas9 RNP using a sgRNA targeted to the BFP gene. 72 hours later, cells with BFP fluorescent drop out (via Cas9 indel formation) were quantified by flow cytometry (Beckman Coulter—Cytoflex instrument).
In time-course experiments in FIG. 3D, K562 samples were nucleofected with 5 μL RNP reactions with the addition of 100 pmol of ssODN donor in 1 μL of water. RNP nucleofected samples were incubated at 37° C. in complete media before being spun down and nucleofected with 250 pmol of PNA at specified time points. After PNA delivery cells were seeded in 2 mL of complete media and incubated for 96 hours prior to harvesting and analysis.
10^6 stable BFP-expressing K562 cells were nucleofected (Lonza 4D Nucleofector) with specified dose (0-250 pmol, or 250 pmol if unspecified) of specified PNA with sequences homologous to (antispacer) or identical to (cis-spacer) the BFP gRNA spacer sequence. Two hours later, all conditions were nucleofected with 45 pmol of purified Cas9 RNP using a sgRNA targeted to the BFP gene. 72 hours later, cells with BFP fluorescent drop out (via Cas9 indel formation) were quantified by flow cytometry (Beckman Coulter—Cytoflex instrument).
10^6 stable BFP-expressing K562 cells were nucleofected (Lonza 4D Nucleofector) with 45 pmol of purified Cas9 RNP using a sgRNA targeted to the BFP gene. At each specified time point 250 pmol of BFP Anti-protospacer PNA were introduced via nucleofection. For “Cas9 only” condition there was no second PNA nucleofection and for “0 hrs” 250 pmol of PNA was co-nucleofected with Cas9 in a single reaction. After each nucleofection samples were left in fresh media for the duration of the experiment to acquire edits. 72 hours after the “24 hrs” nucleofection, cells for all conditions with BFP fluorescent drop out (via Cas9 indel formation) were quantified by flow cytometry (Beckman Coulter—Cytoflex instrument).

dCas9-VPR / POU5F1 sgRNA = assay: CRISPRa (dCas9-VPR) POU5F1 expression in stable K562 cells, RT-qPCR; type: cell-based, human; conditions: 250 pmol PNA
Protocol: Stable K562-hEF1α-dCas9-VPR line was established by lentiviral transduction using Edit-R purified lentiviral particles (Horizon Discovery) and blasticidin selection (5 μg/mL, A1113903, Gibco). dCas9-VPR integration was confirmed by western blot with CRISPR-Cas9 antibody (7A9-3A3, Novus). dCas9-VPR expressing line was further transduced with Edit-R CRISPRa human POU5F1 sgRNA purified lentiviral particles (VSGH11902, Horizon Discovery, Table 4) and puromycin selection (2 μg/mL, Gibco).
4×10^6 stable dCas9-VRP/POU5F1 sgRNA expressing K562 cells (generated using lentivirus from Horizon Discovery), or K562 cells, were nucleofected with 250 pmol of specified PNA (non-targeting BFP or POU5F1) using a Lonza 4D nucleofector. At each specified time point 500 μL of cells were removed from each condition flask, spun down, and frozen. RNA was extracted from each pellet using QIAGEN Rneasy Mini Kits and cDNA was generated using Applied Biosystems High Capacity cDNA reverse transcription kit. rtPCR reactions were conducted for each sample using a StepOnePLUS Real-Time PCR System (Applied Biosystems) using Taqman Fast Advanced Master Mix and TaqMan gene specific probes for POU5F1 and GAPDH. Expression relative to the untreated parent K562 line was recorded as fold-change and calculated using the ΔΔCT method.
For RNA extractions 0.5×10^6 K562 cells were spun down, washed once with PBS, homogenized using QIAshredder columns (QIAGEN 79656) and processed using QIAGEN RNeasy mini kits (74106) before eluting in 50 μL of water. Resulting RNA was used as input for high-capacity cDNA Reverse Transcription Kit (Applied Biosystems) and resulting reaction was diluted 1:5 with water. RT-qPCR reactions were conducted in triplicate for each sample using a StepOnePLUS Real-Time PCR System (Applied Biosystems) and Taqman Fast Advanced Master Mix (Applied Biosystems) with TaqMan gene specific probes (Table 8). Expression relative to the untreated K562 parent line was recorded as fold-change and calculated from averaged CT values using the ΔΔCT method.

[5] = 150 pmol dose, three replicates

AUGGCGUGCAGUGCUUCAGC (chemistry not given here) [Antispacer RNA (melting study), complementary RNA oligomer (length 20nt), IDT]
Tm of duplex with RNA spacer sequence [1]: 69 °C

CCAACTGCAT (all peptide nucleic acid (PNA); further chemistry not fully specified) [HBB R-01 PAMprox 10 mer PNA, 1 Lysine (K) on either end]
HBB editing ([2]; 50 pmol PNA (45.2% without PNA)): 0.102%
mean fold reduction of HBB target editing [2, 5]: 2,372 fold
total indels detected across 28,104 analyzed amplicons [2, 5]: 6
fold reduction of HBB target editing ([2]; 1:1 PNA:sgRNA ratio (50 pmol)): 443 fold

GCTCGGACTC (all peptide nucleic acid (PNA); further chemistry not fully specified) [EMX1 PAMdist 10 mer PNA]
specificity ratio versus Cas9 only ([3]; K562, HEK293, and U2OS cell lines, PNA pre-treatment prior to Cas9 RNP nucleofection): significantly increased specificity ratios
specificity versus pre-treatment approaches ([3]; PNA pre-annealed to sgRNA prior to Cas9 RNP formation, delivered as a single complex, K562): further improved specificity

K-ATGGCGTGCA-K (all peptide nucleic acid (PNA), 5' {Lys}, 3' {Lys}) [BFP PAM-proximal PNA]
reduction of BFP editing ([4]; 50 pmol dose): 96.0%
reduction of BFP editing ([4]; 250 pmol dose): 99.7%
fold reduction in editing ([4]; 1:1 PNA:sgRNA molar ratio (50 pmol)): 24.5 fold
fold reduction in editing ([4]; 5:1 PNA:sgRNA ratio (250 pmol)): 342.6 fold

K-GTGCAGTGCT-K (all peptide nucleic acid (PNA), 5' {Lys}, 3' {Lys}) [BFP PAM-middle PNA]
fold reduction in editing ([4]; 5:1 PNA:sgRNA ratio (250 pmol)): 32.4 fold

K-GTGCTTCAGC-K (all peptide nucleic acid (PNA), 5' {Lys}, 3' {Lys}) [BFP PAM-distal PNA]
inhibitory effect on Cas9-mediated BFP gene disruption and indel formation [4]: attenuated effect
reduction of BFP editing ([4]; 50 pmol dose): 10%
reduction of BFP editing ([4]; 250 pmol dose): 32%

KKK-CCACCATTAGGCAAACATCC-KKK (all peptide nucleic acid (PNA), 5' {Lys}-{Lys}-{Lys}, 3' {Lys}-{Lys}-{Lys}) [POU5F1 CRISPRa PNA]
duration of the full effect (dCas9-VPR / POU5F1 sgRNA): 2 to 3 days
effect on CRISPRa upregulated POU5F1 expression (dCas9-VPR / POU5F1 sgRNA): down to the level of the parental K562 line
time after treatment at which the effect appears to dissipate (dCas9-VPR / POU5F1 sgRNA): approximately 5 days
time by which POU5F1 expression dropped to the level of the parent line expression (dCas9-VPR / POU5F1 sgRNA): ≤ 48 h
time by which expression began to return to its upregulated baseline (dCas9-VPR / POU5F1 sgRNA): ≤ 120 h

KKK-GGGTTAAGGCAATAGCAATA-KKK [GFP Non-Targeting PNA]
inhibitory effect on Cas9-mediated BFP gene disruption and indel formation ([4]; listed as heterologous GFP PNA): no effect
inhibitory effect on Cas9-mediated BFP gene disruption and indel formation ([4]; listed as non-targeting (GFP) PNA): entirely ineffective
